Like-named read-outs stand apart in the source and are kept apart here.
Key:
Format in all cases: in vivo
Viola tricolor (VIOTR) = test: Post-emergence action, greenhouse pot test, visual scoring: VIOTR; conditions: 10 DAT
Method: (§1) Seeds or rhizome pieces of mono- and dicotyledonous harmful and useful plants were placed in peat pots (diameter 4 cm) filled with sandy loam and then covered with soil. The pots were kept in a greenhouse under optimum conditions. In addition, harmful plants encountered in paddy rice cultivation were cultivated in pots with a water level 2 cm above the soil surface.
(§2) About three weeks after the start of the cultivation, the test plants were treated at the 2- to 3-leaf stage. The herbicides, formulated as powder or liquid concentrates, were, either alone or in the combinations according to the invention, sprayed in various dosages on to the green parts of the plants using an application rate of 600 l of water/ha (converted). For further cultivation of the plants, the pots were then again kept under optimum conditions in a greenhouse.
(§3) The visual scoring of the herbicidal effects was carried out in intervals up to 21 days after the treatment. Scoring was carried out in percent in comparison to the untreated control plants. 0%=no herbicidal activity, 100%=complete herbicidal activity=complete kill.
(§4) The percentages from the treatments with the herbicides alone (=individual application) and with the combinations according to the invention (=mixtures) were employed to calculate interactions using the method of Colby. When the observed efficacies of the mixtures exceed the formal sum of the values of the tests with individual applications, they also exceed the expected value according to Colby, which is calculated using the formula below (cf. S. R. Colby; in Weeds 15 (1967) pp. 20 to 22):
(§5) Here: • A, B=activity of components A and B in percent at a dosage of a and b g of ai/ha (=gramm of active substance per hectare), respectively. • E=expected value in % at a dosage of a+b g of ai/ha.
(§6) The combinations according to the invention of herbicides from group (A) with herbicides from group (B) were tested on a broad spectrum of important harmful plants (weed grasses, broad-leaved weeds/Cyperaceae) and useful plants: Triticum aestivum (TRZAS), Stellaria media (STEME), Lolium multiflorum (LOLMU), Veronica persica (VERPE), Alopecurus myosuroides (ALOMY), Matricaria inodora (MATIN), Brassica napus (BRSNW), Viola tricolor (VIOTR), Avena fatua (AVEFA), Amaranthus retroflexus (AMARE), Zea mays (ZEAMX), Pharbitis purpurea (PHBPU), Setaria viridis (SETVI), Fallopia (ex Polygonum) convolvulus (POLCO), Echinochloa crusgaffi (ECHCG), Abuthilon theophrasti (ABUTH), Cyperus esculentus (CYPES), Oryza sativa (ORYSA).
(§7) Of particular interest are the results shown in the tables (Tab.) below, where the following key is used: • (1) EPPO code (former Bayer code) for the treated plant (see above) • (2) Time of scoring: DAT (days after treatment) • (3) Component A tested (identifying number) • (4) Component B tested (identifying number) • (5) Dosage component A [g of ai/ha] • (6) Dosage component B [g of ai/ha] • (7) % activity found • (8) E value (calculated according to Colby; see above) • (9) Comments: “SYNERGY” =synergistic interaction (E value<% activity found); “SAFENING”=safener action on useful plant (E value>% activity found)

[1] = test system: Pharbitis purpurea (PHBPU); test: Post-emergence action, greenhouse pot test, visual scoring: PHBPU
Method: as §1, §2, §3, §4, §5, §6, §7

[2] = test system: Cyperus esculentus (CYPES); test: Post-emergence action, greenhouse pot test, visual scoring: CYPES; conditions: 21 DAT
Method: as §1, §2, §3, §4, §5

Zea mays (ZEAMX) = test: Post-emergence action, greenhouse pot test, visual scoring: ZEAMX; conditions: Zea mays, post-emergence, read-out: % activity found; for plant injury at 200 g/ha: B 200 g of ai/ha; for plant injury at 1200 g/ha: B 1200 g of ai/ha
Method: as §1, §2, §3, §4, §5, §6, §7

Setaria viridis (SETVI) = test: Post-emergence action, greenhouse pot test, visual scoring: SETVI; conditions: Setaria viridis, post-emergence, 504 h, 21 DAT, read-out: % activity found
Method: as §1, §2, §3, §4, §5, §6, §7

[3] = test system: Abuthilon theophrasti (ABUTH); test: Post-emergence action, greenhouse pot test, visual scoring: ABUTH; conditions: 21 DAT
Method: as §1, §2, §3, §4, §5, §6, §7

[4] = test system: Fallopia (ex Polygonum) convolvulus (POLCO); test: Post-emergence action, greenhouse pot test, visual scoring: POLCO; conditions: 21 DAT
Method: as §1, §2, §3, §4, §5, §6, §7

Stellaria media (STEME) = test: Post-emergence action, greenhouse pot test, visual scoring: STEME; conditions: 10 DAT
Method: as §1, §2, §3, §4, §5, §6, §7

Avena fatua (AVEFA) = test: Post-emergence action, greenhouse pot test, visual scoring: AVEFA; conditions: 21 DAT
Method: as §1, §2, §3, §4, §5, §6, §7

Oryza sativa (ORYSA) = test: Post-emergence action, greenhouse pot test, visual scoring: ORYSA; conditions: Oryza sativa, post-emergence, read-out: % activity found
Method: as §1, §2, §3, §4, §5, §6, §7

[5] = test system: Matricaria inodora (MATIN); test: Post-emergence action, greenhouse pot test, visual scoring: MATIN
Method: as §1, §2, §3, §4, §5

[6] = test system: Triticum aestivum (TRZAS); test: Post-emergence action, greenhouse pot test, visual scoring: TRZAS; conditions: Triticum aestivum, post-emergence, read-out: % activity found; for plant injury at 200 g/ha: B 200 g of ai/ha
Method: as §1, §2, §3, §4, §5, §6, §7

[7] = test system: Amaranthus retroflexus (AMARE); test: Post-emergence action, greenhouse pot test, visual scoring: AMARE; conditions: 10 DAT
Method: as §1, §2, §3, §4, §5

Veronica persica (VERPE) = test: Post-emergence action, greenhouse pot test, visual scoring: VERPE
Method: as §1, §2, §3, §4, §5, §6, §7

[8] = test system: Lolium multiflorum (LOLMU); test: Post-emergence action, greenhouse pot test, visual scoring: LOLMU; conditions: 10 DAT, B 400 g of ai/ha
Method: as §1, §2, §3, §4, §5, §6, §7

[9] = test system: Alopecurus myosuroides (ALOMY); test: Post-emergence action, greenhouse pot test, visual scoring: ALOMY; conditions: Alopecurus myosuroides, post-emergence, read-out: % activity found; for pest or weed control at 400 g/ha: B 400 g of ai/ha
Method: as §1, §2, §3, §4, §5

[10] = 504 h, 21 DAT, B 600 g of ai/ha
[11] = 240 h, 10 DAT, B 400 g of ai/ha

CN(C(=O)COc1nc2ccccc2s1)c1ccccc1 [B3-4, 2-(2-benzothiazolyloxy)-N-methyl-N-phenylacetamide]
% activity found (Viola tricolor (VIOTR); B 200 g of ai/ha): 0% | % activity found (Viola tricolor (VIOTR); B 600 g of ai/ha): 0% | % activity found ([1]; 21 DAT, B 200 g of ai/ha): 0% | % activity found ([2]; B 200 g of ai/ha): 0% | % activity found ([2]; B 600 g of ai/ha): 0% | plant injury at 200 g/ha (Zea mays (ZEAMX); 240 h, 10 DAT): 0% | plant injury at 200 g/ha (Zea mays (ZEAMX); 504 h, 21 DAT): 0% | plant injury at 600 g/ha (Zea mays (ZEAMX); [10]): 10% | pest or weed control at 200 g/ha (Setaria viridis (SETVI); B 200 g of ai/ha): 30% | % activity found ([3]; B 200 g of ai/ha): 0% | % activity found ([3]; B 600 g of ai/ha): 0% | % activity found ([4]; B 200 g of ai/ha): 0% | % activity found ([4]; B 600 g of ai/ha): 0% | % activity found (Stellaria media (STEME); B 200 g of ai/ha): 10% | % activity found (Avena fatua (AVEFA); B 200 g of ai/ha): 0% | plant injury at 600 g/ha (Oryza sativa (ORYSA); [10]): 20% | % activity found ([5]; 10 DAT, B 200 g of ai/ha): 0% | % activity found ([5]; 10 DAT, B 600 g of ai/ha): 0% | % activity found ([5]; 21 DAT, B 200 g of ai/ha): 0% | % activity found ([5]; 21 DAT, B 600 g of ai/ha): 20% | plant injury at 200 g/ha ([6]; 240 h, 10 DAT): 10% | plant injury at 200 g/ha ([6]; 504 h, 21 DAT): 0%

CCCCOCN(C(=O)CCl)c1c(CC)cccc1CC [B4-3, N-(butoxymethyl)-2-chloro-N-(2,6-diethylphenyl)acetamide]
% activity found ([1]; 10 DAT, B 400 g of ai/ha): 0% | % activity found ([1]; 10 DAT, B 1200 g of ai/ha): 0% | % activity found ([1]; 21 DAT, B 400 g of ai/ha): 0% | % activity found ([1]; 21 DAT, B 1200 g of ai/ha): 0% | % activity found ([7]; B 400 g of ai/ha): 0% | % activity found ([7]; B 1200 g of ai/ha): 0% | plant injury at 1200 g/ha (Zea mays (ZEAMX); 240 h, 10 DAT): 20% | plant injury at 1200 g/ha (Zea mays (ZEAMX); 504 h, 21 DAT): 0% | % activity found (Veronica persica (VERPE); 10 DAT, B 400 g of ai/ha): 0% | % activity found (Veronica persica (VERPE); 10 DAT, B 1200 g of ai/ha): 0% | % activity found (Veronica persica (VERPE); 21 DAT, B 1200 g of ai/ha): 20% | pest or weed control at 400 g/ha (Setaria viridis (SETVI); B 400 g of ai/ha): 0% | % activity found ([3]; B 400 g of ai/ha): 0% | % activity found ([4]; B 400 g of ai/ha): 0% | % activity found ([4]; B 1200 g of ai/ha): 0% | % activity found [8]: 40% | % activity found (Stellaria media (STEME); B 400 g of ai/ha): 0% | % activity found (Avena fatua (AVEFA); B 1200 g of ai/ha): 50% | pest or weed control at 400 g/ha ([9]; 240 h, 10 DAT): 20% | pest or weed control at 400 g/ha ([9]; 504 h, 21 DAT): 0% | pest or weed control at 1200 g/ha ([9]; 504 h, 21 DAT, B 1200 g of ai/ha): 50% | plant injury at 400 g/ha (Oryza sativa (ORYSA); [11]): 0% | % activity found ([5]; 10 DAT, B 400 g of ai/ha): 0% | % activity found ([5]; 10 DAT, B 1200 g of ai/ha): 20% | % activity found ([5]; 21 DAT, B 400 g of ai/ha): 0% | % activity found ([5]; 21 DAT, B 1200 g of ai/ha): 40% | plant injury at 400 g/ha [6, 11]: 0%

From patent US20100099564A1, “HERBICIDE COMBINATION COMPRISING DIMETHOXYTRIAZINYL-SUBSTITUTED DIFLUOROMETHANESULFONYLANILIDES” (BAYER CROPSCIENCE AG, priority 2008, published 2010)
